# Literature values, collected in patent publication US20200022905A1 (priority 2009, published 2020).
# Where two headings read alike, the source gives them in different places.
# How the values were obtained:
# [1] = especially by non-smokers
# [2] = not given; remark: listed apart in the source
smiles,measurement,setting,value
CN1CCCC1c1cccnc1 (stereo not shown) [Nicotine],dose after which serious toxic reactions may be experienced,[1],4 to 8 mg
same,time to get to the brain after smoke inhalation,,ten to twenty
same,ratio of non-ionized form,[2]; pH 7.4,30%
same,ratio of non-ionized form,[2]; pH 8.5,80%
